The values below come from US8207121B2, “Sensitization to another anticancer therapy and/or amelioration of a side effect of another anticancer therapy by treatment with a GST-activated anticancer compound” (Telik, Inc., priority 2004, dated 2012).

In one data set the target is T1, GST M1a-1a (Homo sapiens, UniProt P09488).
T1 sequence (P09488 1-218): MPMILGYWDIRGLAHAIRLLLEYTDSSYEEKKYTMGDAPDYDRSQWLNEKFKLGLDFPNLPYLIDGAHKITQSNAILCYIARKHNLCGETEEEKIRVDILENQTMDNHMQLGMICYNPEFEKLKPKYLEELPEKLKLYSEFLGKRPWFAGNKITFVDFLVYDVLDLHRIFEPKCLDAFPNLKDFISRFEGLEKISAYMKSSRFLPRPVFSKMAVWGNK
To be noted: cited from earlier work.

Another data set deals with GST P1-1 (Homo sapiens, UniProt P09211). To be noted: cited from earlier work.
GST P1-1, sequence (P09211 2-210 limits assumed): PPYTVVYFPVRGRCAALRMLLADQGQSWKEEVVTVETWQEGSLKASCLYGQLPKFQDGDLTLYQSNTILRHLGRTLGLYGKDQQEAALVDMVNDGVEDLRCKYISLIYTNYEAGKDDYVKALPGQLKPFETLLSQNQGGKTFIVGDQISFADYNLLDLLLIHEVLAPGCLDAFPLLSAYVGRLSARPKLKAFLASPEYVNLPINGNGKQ
A further data set has as its target T2, GST A1-1 (Homo sapiens, UniProt P08263).
T2 sequence (P08263 1-222): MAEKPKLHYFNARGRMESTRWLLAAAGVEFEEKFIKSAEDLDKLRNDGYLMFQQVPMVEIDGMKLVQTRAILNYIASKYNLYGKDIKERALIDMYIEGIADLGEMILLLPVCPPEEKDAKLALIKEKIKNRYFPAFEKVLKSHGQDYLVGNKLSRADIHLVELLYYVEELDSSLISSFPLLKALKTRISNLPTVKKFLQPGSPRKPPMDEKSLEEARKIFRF
To be noted: cited from earlier work.

A short description of data set [1]: Clinical observation: side effects of carboplatin therapy in ovarian cancer patients. The format is in vivo, human. An excerpt: Ovarian cancer patients treated with carboplatin-containing regimens underwent repeated cycles of alopecia corresponding to the administration of the carboplatin.
The next data set deals with M7609 xenografts. To be noted: xenografts engineered to have high, medium, and low GST P1-1; cited from earlier work.
Data set [2] deals with ovarian, breast, non-small cell lung, and colorectal cancers. The settings on record: cited from earlier work.
Another data set deals with OVCAR-3 cells. Briefly: Cytotoxicity assay (CellTiter-Glo), OVCAR-3. The class given is cell-based. To be noted: Homo sapiens. As to the method:
Cancer cell line. The human cancer cell line OVCAR-3 (ovarian adenocarcinoma) was obtained from the National Cancer Institute, Bethesda, Md., U.S.A.
(§1) A paclitaxel-resistant derivative cell line OVCAR-PR was developed from the human ovarian cancer cell line OVCAR-3 by growing OVCAR-3 cells in gradually increasing concentrations (up to 5 nM) of paclitaxel. A canfosfamide-modified derivative cell line OVCAR-TLK was developed by growing OVCAR-3 cells in gradually increasing concentrations (up to 6.5 μM) of canfosfamide. To maintain the phenotypes of the cell lines, the cells were treated with the compounds at weekly intervals. Cells were grown in compound-free media for 24 hours before any experiments.
(§2) Cytotoxicity assay. Log-phase cells were seeded in 96-well plates and incubated with the diluted compound or solvent for 2-3 doubling times. The extent of cell growth was quantitated using the CellTiter-Glo assay (Promega Corporation, Madison, Wis., U.S.A.), used in accordance with the assay kit directions. The amount of ATP in the lysate, which corresponds to the number of viable cells, was quantitated using a luminometer. All assays were conducted in triplicate wells, with solvent control. The extent of cell growth was expressed as a percentage of the signal from the solvent control wells. The mean of the triplicate wells was computed and IC50 determined using PrismGraph.
Background: Cellular ATP, detected with luciferase, serves as a proxy for viable cell number.

The next data set concerns OVCAR-PR cells. The experiment in a line: Cytotoxicity assay (CellTiter-Glo), paclitaxel-resistant OVCAR-PR. The class given is cell-based, human. The settings on record: for IC50: Homo sapiens; for increase in resistance: IC50 in OVCAR-PR cells versus OVCAR-3 cells. As to the method:
as §1, §2

Another data set concerns OVCAR-TLK cells. The experiment in a line: Cytotoxicity assay (CellTiter-Glo), canfosfamide-modified OVCAR-TLK. The class given is cell-based, human. As to the method:
as §1, §2
Cell doubling time. 1.5×10^4 cells were seeded in a 25-mL flask. The cells were grown for four days and the number of viable cells was determined by Trypan Blue staining and manual counting using a hemocytometer. The assay was conducted in triplicate at each time point. The times for two cell doublings for OVCAR-3 and OVCAR-TLK cells were approximately 3.5 and 5.5 days, respectively.

In data set [3] the test system is M6709 human colon carcinoma cell line selected for resistance to doxorubicin. To be noted: line overexpresses GST P1-1; cited from earlier work.
For data set [4], the system named is MCF-7 human breast carcinoma cell line selected for resistance to cyclophosphamide. The settings on record: line overexpresses GST P1-1; cited from earlier work.
Data set [5] has as its system cell culture and tumor biopsies. To be noted: cited from earlier work.

The term IC50 denotes the concentration that gives 50% inhibition.

Structures can show the parent of a compound that is named as a salt. Where two headings read alike, the source gives them in different places.

With `N[C@@H](CCC(=O)N[C@@H](CS(=O)(=O)CCOP(=O)(N(CCCl)CCCl)N(CCCl)CCCl)C(=O)NCC(=O)O)C(=O)O` [TLK231, L-γ-glutamyl-3-[[2-[[bis[bis(2-chloroethyl)amino]phosphinyl]oxy]ethyl]sulfonyl]-L-alanyl-glycine], the “activation by GST isoenzyme” value at GST M1a-1a was “activated”.

For the molecule `N[C@@H](CCC(=O)N[C@@H](Cc1cccc(S(=O)(=O)CCOP(=O)(N(CCCl)CCCl)N(CCCl)CCCl)c1)C(=O)NCC(=O)O)C(=O)O` [TLK(296, L-γ-glutamyl-3-[[2-[[bis[bis(2-chloroethyl)amino]phosphinyl]oxy]ethyl]sulfonyl]-L-phenylalanyl-glycine], the “activation by GST isoenzyme” value at GST P1-1 was “activated”.

As to `C[C@@](NC(=O)[C@H](CS(=O)(=O)CCOP(=O)(N(CCCl)CCCl)N(CCCl)CCCl)NC(=O)CC[C@H](N)C(=O)O)(C(=O)O)c1ccccc1` [TLK(303, L-γ-glutamyl-3-[[2-[[bis[bis(2-chloroethyl)-amino]phosphinyl]oxy]ethyl]sulfonyl]-L-alanyl-2-phenyl-(2S)-alanine], at GST A1-1, the “activation by GST isoenzyme” value is “activated”.

With `N[C@@H](CCC(=O)N[C@@H](CS(=O)(=O)CCOP(=O)(N(CCCl)CCCl)N(CCCl)CCCl)C(=O)N[C@@H](C(=O)O)c1ccccc1)C(=O)O` [canfosfamide hydrochloride], the “recurrence of alopecia with carboplatin treatment” value in data set [1] (carboplatin AUC 5 or 6 mg/mL·min with canfosfamide hydrochloride 500, 750 and 960 mg/m^2) is given as “did not experience the same recurrence of alopecia”. Further, in data set [1] (carboplatin in combination with canfosfamide hydrochloride), the “hematologic and neurologic side effects of carboplatin” value is reported as “similarly ameliorated”. Further, the “potency versus level of GST P1-1” value in the data set with M7609 xenografts is “positively correlated with the level of GST P1-1”. The “hematological toxicity in patients” value in data set [2] (treated patients) was “very low incidence of clinically significant hematological toxicity”.

Regarding `N[C@@H](CCC(=O)N[C@@H](CS(=O)(=O)CCOP(=O)(N(CCCl)CCCl)N(CCCl)CCCl)C(=O)N[C@@H](C(=O)O)c1ccccc1)C(=O)O` [canfosfamide, L-γ-glutamyl-3-[[2-[[bis[bis(2-choroethyl)-amino]phosphinyl]oxy]ethyl]sulfonyl]-L-alanyl-2-phenyl-(2R)-glycine], the IC50 in the data set on OVCAR-3 cells (OVCAR-3) came out at 1300 nM; in the data set on OVCAR-PR cells, 1600 nM. This molecule had an increase in resistance in the data set with OVCAR-PR cells of 1.2 fold. For the same molecule, the “sensitivity to canfosfamide, OVCAR-3 versus OVCAR-TLK” value with OVCAR-TLK cells (treated for approximately two doubling times) was “approximately equally sensitive”. Further, the “potency versus parental cell line” value in data set [3] and in data set [4] was “more potent” each time. In addition, in [5], the “cross-resistance to platinum, paclitaxel, doxorubicin and gemcitabine” value is “non-cross-resistant”. Further, the “activation by GST isoenzyme” value on GST P1-1 and on GST A1-1 was “activated” throughout. The clinical activity result in data set [2] (colorectal and breast cancer) is “single agent antitumor activity”; in data set [2] (patients with non-small cell lung cancer and ovarian cancer), “significant single agent antitumor activity and improvement in survival”.

Consider `CC(=O)O[C@H]1C(=O)[C@@]2(C)[C@H]([C@H](OC(=O)c3ccccc3)[C@]3(O)C[C@H](OC(=O)[C@H](O)[C@@H](NC(=O)c4ccccc4)c4ccccc4)C(C)=C1C3(C)C)[C@]1(OC(C)=O)CO[C@@H]1C[C@@H]2O` [paclitaxel], for which the half-inhibitory concentration (IC50) was 1.3 nM in the data set with OVCAR-3 cells (OVCAR-3 cells, read-out: IC50) and 49 nM in the data set on OVCAR-PR cells (OVCAR-PR cells, read-out: IC50). Moreover, in the data set with OVCAR-PR cells, the increase in resistance result is “more than 35 fold”. In addition, in the data set on OVCAR-PR cells (OVCAR-PR cells first treated overnight with 4 μM canfosfamide), the “decrease of IC50 for paclitaxel after canfosfamide pretreatment” value is given as “approximately 3 fold”. The “IC50s for paclitaxel, OVCAR-3 versus OVCAR-TLK” value with OVCAR-TLK cells (equal treatment times) is on record as “approximately the same”. For the same molecule, the “IC50 for paclitaxel lower in OVCAR-TLK than in OVCAR-3 cells” value in the data set with OVCAR-TLK cells (treatment times adjusted for doubling times (approximately two doubling times)) is “about 2 fold”.
